This experiment deals with GHSR1a (growth hormone secretagogue receptor 1a, ghrelin receptor) (Homo sapiens, UniProt Q92847). As to the kind of experiment: aequorin Ca2+ mobilization, antagonism of L-692, […] in HEK293 cells. The experiment is classed as cell-based. In general terms: A change in cytosolic calcium serves as a functional read-out for many receptors and channels.

The structures appear in SMILES notation.

Chain of GHSR1a (growth hormone secretagogue receptor 1a, ghrelin receptor) (Q92847 whole entry): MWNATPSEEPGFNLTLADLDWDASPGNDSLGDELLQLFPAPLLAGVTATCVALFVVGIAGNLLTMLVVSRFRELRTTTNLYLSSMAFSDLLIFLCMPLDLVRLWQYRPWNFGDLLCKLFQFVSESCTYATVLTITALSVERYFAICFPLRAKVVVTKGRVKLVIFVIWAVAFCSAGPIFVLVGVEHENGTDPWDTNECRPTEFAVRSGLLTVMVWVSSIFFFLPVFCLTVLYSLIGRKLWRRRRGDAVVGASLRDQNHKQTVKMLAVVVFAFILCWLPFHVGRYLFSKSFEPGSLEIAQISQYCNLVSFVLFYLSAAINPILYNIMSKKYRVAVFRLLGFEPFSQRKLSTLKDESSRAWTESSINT

For `Cc1nc2ccc(Oc3ccc(F)cc3)cc2c(=O)n1C[C@H]1CCCN(C(C)C)C1` [YIL781], the IC50 (as a rule, the concentration needed to halve the response being measured) worked out at 185 nM.
